In patent publication US10875876B2, “Cyclized sulfamoylarylamide derivatives and the use thereof as medicaments for the treatment of hepatitis B” (priority 2015, dated 2020):
Read-outs that look alike come from different tables or passages of the source.

Assays:
HBV = assay: anti HBV activity, HepG2.117 cell line, intracellular HBV DNA by realtime PCR; format: cell-based; details: HepG2.117 cell line (Tet-off), 3 days of treatment, intracellular HBV DNA quantified by realtime PCR, read-out: HBV-AVE-HepG2.117 EC50
Method in brief: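 HepG2.117 cells, a Tet-off line that replicates HBV without doxycycline, were induced and then treated in duplicate with serially diluted compound. After 3 days, intracellular HBV DNA was quantified by real-time PCR with an HBV-specific primer set and probe.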

[1] = Cytotoxicity in HepG2 cells, Resazurin assay; details: human, HepG2 cells, TOX-HepG2-4 d CC50 (μM), HepG2 cells incubated for 4 days, viability by Resazurin assay
[2] = Hepatitis B virus, HepG2.117, 72 h

Row | SMILES | EC50 (HBV) [nM] | CC50 at 4 days [1] [µM] | EC50 (HBV; [2]) [nM]
1 | Cn1cc2c(c1C(=O)Nc1ccc(F)c(F)c1)OCC(C1CCOCC1)NS2(=O)=O (single isomer, unassigned) [Compound 89a, N-(3,4-difluorophenyl)-7-methyl-1,1-dioxo-3-tetrahydropyran-4-yl-3,4-dihydro-2H-pyrrolo[3,4-b][1,4,5]oxathiazepine-6-carboxamide] | 190 | > 25 | 
2 | C[C@@H]1Oc2c(cn(C)c2C(=O)Nc2ccnc(C(F)F)c2)S(=O)(=O)N[C@@H]1CO [compound 233] |  | > 25 | > 500
3 | Cc1cc(CC2(C)COc3c(cn(C)c3C(=O)Nc3ccc(F)c(C(F)F)c3)S(=O)(=O)N2)n(C)n1 (single isomer, unassigned) [Compound 176a, N-[3-(difluoromethyl)-4-fluoro-phenyl]-3-[(2,5-dimethylpyrazol-3-yl)methyl]-3,7-dimethyl-1,1-dioxo-2,4-dihydropyrrolo[3,4-b][1,4,5]oxathiazepine-6-carboxamide] |  | > 25 | 12
4 | Cn1cc2c(c1C(=O)Nc1ccnc(C(F)(F)F)c1)CCC(C(F)(F)F)NS2(=O)=O (racemic) [Compound 59, 7-methyl-1,1-dioxo-3-(trifluoromethyl)-N-[2-(trifluoromethyl)-4-pyridyl]-2,3,4,5-tetrahydropyrrolo[3,4-f]thiazepine-6-carboxamide] |  | > 25 | 240
5 | Cn1cc2c(c1C(=O)Nc1ccc(F)c(F)c1)OC[C@H]([C@H](O)c1ccccc1)NS2(=O)=O [Compound 36, (3R)—N-(3,4-difluorophenyl)-3-[(R)-hydroxy(phenyl)methyl]-7-methyl-1,1-dioxo-3,4-dihydro-2H-pyrrolo[3,4-b][1,4,5]oxathiazepine-6-carboxamide] |  | > 25 | 5
6 | Cn1cc2c(c1C(=O)Nc1cc(F)c(F)c(F)c1)OC[C@H](C(O)C1CC1)NS2(=O)=O (single isomer, unassigned) [Compound 208a, 3-[cyclopropyl(hydroxy)methyl]-7-methyl-1,1-dioxo-N-(3,4,5-trifluorophenyl)-3,4-dihydro-2H-pyrrolo[3,4-b][1,4,5]oxathiazepine-6-carboxamide] |  | > 25 | 8
7 | Cn1cc2c(c1C(=O)Nc1ccc(F)c(F)c1)OC[C@H](Cc1cccnc1)NS2(=O)=O [Compound 38, (3S)—N-(3,4-difluorophenyl)-7-methyl-1,1-dioxo-3-(3-pyridylmethyl)-3,4-dihydro-2H-pyrrolo[3,4-b][1,4,5]oxathiazepine-6-carboxamide] |  | > 25 | 5
8 | Cn1cc2c(c1C(=O)Nc1ccc(F)c(C#N)c1)CCC(C(C)(C)O)NS2(=O)=O (single isomer, unassigned) [Compound 116a, N-(3-cyano-4-fluoro-phenyl)-3-(1-hydroxy-1-methyl-ethyl)-7-methyl-1,1-dioxo-2,3,4,5-tetrahydropyrrolo[3,4-f]thiazepine-6-carboxamide] | 22 | > 25 | 
9 | C[C@H](O)[C@H]1CCc2c(cn(C)c2C(=O)Nc2ccc(F)c(F)c2)S(=O)(=O)N1 [Compound 88, (3R)—N-(3,4-difluorophenyl)-3-[(1S)-1-hydroxyethyl]-7-methyl-1,1-dioxo-2,3,4,5-tetrahydropyrrolo[3,4-f]thiazepine-6-carboxamide] |  | > 25 | 11
10 | C[C@H](O)[C@H]1COc2c(cn(C)c2C(=O)Nc2ccc(F)c(F)c2)S(=O)(=O)N1 [Compound 35, (3R)—N-(3,4-difluorophenyl)-3-[(1S)-1-hydroxyethyl]-7-methyl-1,1-dioxo-3,4-dihydro-2H-pyrrolo[3,4-b][1,4,5]oxathiazepine-6-carboxamide] |  | > 25 | 12
11 | Cc1c2c(c(C(=O)Nc3ccc(F)c(F)c3)n1C)CC[C@H](C)NS2(=O)=O [Compound 152, (3S)—N-(3,4-difluorophenyl)-3,7,8-trimethyl-1,1-dioxo-2,3,4,5-tetrahydropyrrolo[3,4-f]thiazepine-6-carboxamide] |  | > 25 | 14
12 | CC(C)[C@@H]1COc2c(cn(C)c2C(=O)Nc2ccc(F)c(F)c2)S(=O)(=O)N1 [Compound 27, (3R)—N-(3,4-difluorophenyl)-3-isopropyl-7-methyl-1,1-dioxo-3,4-dihydro-2H-pyrrolo[3,4-b][1,4,5]oxathiazepine-6-carboxamide] |  | > 25 | 110
13 | CC1C=Cc2c(cn(C)c2C(=O)Nc2ccc(F)c(F)c2)S(=O)(=O)N1C (centres unmarked) [Compound 18, N-(3,4-difluorophenyl)-2,3,7-trimethyl-1,1-dioxo-3H-pyrrolo-[3,4-f]thiazepine-6-carboxamide] |  | > 25 | 710
14 | Cn1cc2c(c1C(=O)Nc1ccc(F)c(C#N)c1)OCC(C)(CO)NS2(=O)=O (single isomer, unassigned) [Compound 210a, N-(3-cyano-4-fluoro-phenyl)-3-(hydroxymethyl)-3,7-dimethyl-1,1-dioxo-2,4-dihydropyrrolo[3,4-b][1,4,5]oxathiazepine-6-carboxamide] |  | > 25 | 37
15 | CC1CCOc2c(cn(C)c2C(=O)Nc2ccc(F)c(F)c2)S(=O)(=O)N1 (centres unmarked) [Compound 21, N-(3,4-difluorophenyl)-3,8-dimethyl-1,1-dioxo-2,3,4,5-tetrahydropyrrolo[3,4-b][1,4,5]oxathiazocine-7-carboxamide] |  | > 25 | 150
16 | Cn1cc2c(c1C(=O)Nc1ccc(F)c(F)c1)OCC1(COC1)NS2(=O)=O [Compound 24, N-(3,4-difluorophenyl)-7-methyl-1,1-dioxo-spiro[2,4-dihydropyrrolo-[3,4-b][1,4,5]oxathiazepine-3,3′-oxetane]-6-carboxamide] |  | > 25 | 68
17 | C[C@H]1CCc2c(cn(C)c2C(=O)Nc2ccnc(C(F)(F)F)c2)S(=O)(=O)N1 (single isomer, unassigned) [Compound 53, (3*S)-3,7-dimethyl-1,1-dioxo-N-[2-(trifluoromethyl)-4-pyridyl]-2,3,4,5-tetrahydropyrrolo[3,4-f]thiazepine-6-carboxamide] |  | > 25 | 190
18 | CC(C)[C@@H]1Oc2c(cn(C)c2C(=O)Nc2ccc(F)c(F)c2)S(=O)(=O)N[C@H]1CO [compound 241] |  | > 25 | > 250
19 | Cn1cc2c(c1C(=O)Nc1ccc(F)c(C(F)F)c1)CC[C@H](CO)NS2(=O)=O [Compound 184, (3R)—N-[3-(difluoromethyl)-4-fluoro-phenyl]-3-(hydroxymethyl)-7-methyl-1,1-dioxo-2,3,4,5-tetrahydropyrrolo[3,4-f]thiazepine-6-carboxamide] |  | > 25 | 20
20 | C[C@H]1C=Cc2c(cn(C)c2C(=O)Nc2ccnc(C(F)(F)F)c2)S(=O)(=O)N1 (single isomer, unassigned) [Compound 42, (3*S)-3,7-dimethyl-1,1-dioxo-N-[2-(trifluoromethyl)-4-pyridyl]-2,3-dihydropyrrolo[3,4-f]thiazepine-6-carboxamide] |  | > 25 | 81
21 | C[C@H]1C=Cc2c(cn(C)c2C(=O)Nc2ccnc(Br)c2)S(=O)(=O)N1 (single isomer, unassigned) [Compound 50, (3*S)—N-(2-bromo-4-pyridyl)-3,7-dimethyl-1,1-dioxo-2,3-dihydropyrrolo[3,4-f]thiazepine-6-carboxamide] |  | > 25 | 2
22 | Cn1cc2c(c1C(=O)Nc1ccc(F)c(C#N)c1)CCC1(COC1)NS2(=O)=O [Compound 138, N-(3-cyano-4-fluoro-phenyl)-7-methyl-1,1-dioxo-spiro[4,5-dihydro-2H-pyrrolo[3,4-f]thiazepine-3,3′-oxetane]-6-carboxamide] |  | > 25 | 29
23 | C[C@@H]1Oc2c(cn(C)c2C(=O)Nc2ccc(F)c(F)c2)S(=O)(=O)N[C@@H]1C [compound 230] |  | > 25 | > 500
24 | Cn1cc2c(c1C(=O)Nc1ccc(F)c(F)c1)OCC(C)(CO)NS2(=O)=O (single isomer, unassigned) [Compound 203a, N-(3,4-difluorophenyl)-3-(hydroxymethyl)-3,7-dimethyl-1,1-dioxo-2,4-dihydropyrrolo[3,4-b][1,4,5]oxathiazepine-6-carboxamide] |  | > 25 | 94
25 | Cn1cc2c(c1C(=O)Nc1ccc(F)c(F)c1)CCC(C(F)(F)F)NS2(=O)=O (centres unmarked) [Compound 47, N-(3,4-difluorophenyl)-7-methyl-1,1-dioxo-3-(trifluoromethyl)-2,3,4,5-tetrahydropyrrolo[3,4-f]thiazepine-6-carboxamide] |  | > 25 | 17
26 | Cn1cc2c(c1C(=O)Nc1ccc(F)c(C(F)F)c1)OC[C@H](C(C)(C)O)NS2(=O)=O [Compound 100, (3R)—N-[3-(difluoromethyl)-4-fluoro-phenyl]-3-(1-hydroxy-1-methyl-ethyl)-7-methyl-1,1-dioxo-3,4-dihydro-2H-pyrrolo[3,4-b][1,4,5]oxathiazepine-6-carboxamide] |  | > 25 | 3
27 | Cn1cc2c(c1C(=O)Nc1ccc(F)c(F)c1)OC[C@@H](C(O)C(F)(F)F)NS2(=O)=O (stereo partly drawn) [Compound 123, (3S)—N-(3,4-difluorophenyl)-7-methyl-1,1-dioxo-3-(2,2,2-trifluoro-1-hydroxy-ethyl)-3,4-dihydro-2H-pyrrolo[3,4-b][1,4,5]oxathiazepine-6-carboxamide] |  | > 25 | 19
28 | Cn1cc2c(c1C(=O)Nc1ccc(F)c(F)c1)CCC(CO)(CO)NS2(=O)=O [Compound 201, N-(3,4-difluorophenyl)-3,3-bis(hydroxymethyl)-7-methyl-1,1-dioxo-4,5-dihydro-2H-pyrrolo[3,4-f]thiazepine-6-carboxamide] |  | > 25 | 110
